Source: article PMC5362750, “Discovery of Potent, Selective, and Orally Bioavailable Small-Molecule Modulators of the Mediator Complex-Associated Kinases CDK8 and CDK19” (Journal of Medicinal Chemistry, 2016)
Values after ≈ are worked out from the molar mass of the structure shown.

Legend:
CRF1 (h) = molecular target: T1, CRF1 (h) (Homo sapiens, UniProt P34998); assay: CEREP binding assay; conditions: agonist radioligand, read-out: % Inhibition of Control Specific Binding
T1 construct: purchased Millipore (KinaseProfiler) kinase panel

CCR2 (h) = molecular target: T2, CCR2 (h) (Homo sapiens, UniProt P41597); assay: CEREP binding assay; conditions: agonist radioligand, read-out: % Inhibition of Control Specific Binding
T2 construct: purchased Millipore (KinaseProfiler) kinase panel

sst4 (h) = sst4 (h) (Homo sapiens, UniProt P31391); assay: CEREP binding assay; conditions: agonist radioligand, read-out: % Inhibition of Control Specific Binding
KDR = molecular target: T3, KDR (Homo sapiens, UniProt P35968); assay: Kinase panel (Millipore); format: biochemical; conditions: 1 µM, ATP at Km
T3 construct: purchased Millipore (KinaseProfiler) kinase panel

EPHA3 = molecular target: T4, EPHA3 (Homo sapiens, UniProt P29320); assay: Kinase panel (Millipore); format: biochemical; conditions: 1 µM, ATP at Km
T4 construct: purchased Millipore (KinaseProfiler) kinase panel

BLK = BLK (Homo sapiens, UniProt P51451); assay: Kinase panel (Millipore); format: biochemical; conditions: 1 µM, ATP at Km
BRSK2 = molecular target: T5, BRSK2 (Homo sapiens, UniProt Q8IWQ3); assay: Kinase panel (Millipore); format: biochemical; conditions: 1 µM, ATP at Km
T5 construct: purchased Millipore (KinaseProfiler) kinase panel

FGFR3 = molecular target: T6, FGFR3 (Homo sapiens, UniProt P22607); assay: Kinase panel (Millipore); format: biochemical; conditions: 1 µM, ATP at Km
T6 construct: purchased Millipore (KinaseProfiler) kinase panel

MLCK = assay: Kinase panel (Millipore); format: biochemical; conditions: 1 µM, ATP at Km
MSK1 = MSK1 (Homo sapiens, UniProt O75582); assay: Kinase panel (Millipore); format: biochemical; conditions: 1 µM, ATP at Km
CK1(Y) = assay: Kinase panel (Millipore); format: biochemical; conditions: 1 µM, ATP at Km
HIPK3 = molecular target: T7, HIPK3 (Homo sapiens, UniProt Q9H422); assay: Kinase panel (Millipore); format: biochemical; conditions: 1 µM, ATP at Km
T7 construct: purchased Millipore (KinaseProfiler) kinase panel

MST3 = molecular target: T8, MST3 (Homo sapiens, UniProt Q9Y6E0); assay: Kinase panel (Millipore); format: biochemical; conditions: 1 µM, ATP at Km
T8 construct: purchased Millipore (KinaseProfiler) kinase panel

DAPK1 = molecular target: T9, DAPK1 (Homo sapiens, UniProt P53355); assay: Kinase panel (Millipore); format: biochemical; conditions: 1 µM, ATP at Km
T9 construct: purchased Millipore (KinaseProfiler) kinase panel

DMPK = DMPK (Homo sapiens, UniProt Q09013); assay: Kinase panel (Millipore); format: biochemical; conditions: 1 µM, ATP at Km
IRAK4 = IRAK4 (Homo sapiens, UniProt Q9NWZ3); assay: Kinase panel (Millipore); format: biochemical; conditions: 1 µM, ATP at Km
EEF-2K = EEF-2K (Homo sapiens, UniProt O00418); assay: Kinase panel (Millipore); format: biochemical; conditions: 1 µM, ATP at Km
JAK3 = molecular target: T10, JAK3 (Homo sapiens, UniProt P52333); assay: Kinase panel (Millipore); format: biochemical; conditions: 1 µM, ATP at Km
T10 construct: purchased Millipore (KinaseProfiler) kinase panel

FAK = FAK (Homo sapiens, UniProt Q05397); assay: Kinase panel (Millipore); format: biochemical; conditions: 1 µM, ATP at Km
PDGFRBETA = molecular target: T11, PDGFRBETA (Homo sapiens, UniProt P09619); assay: Kinase panel (Millipore); format: biochemical; conditions: 1 µM, ATP at Km
T11 construct: purchased Millipore (KinaseProfiler) kinase panel

VRK2 = molecular target: T12, VRK2 (Homo sapiens, UniProt Q86Y07); assay: Kinase panel (Millipore); format: biochemical; conditions: 1 µM, ATP at Km
T12 construct: purchased Millipore (KinaseProfiler) kinase panel

PKA = PKA (Homo sapiens, UniProt P17612); assay: Kinase panel (Millipore); format: biochemical; conditions: 1 µM, ATP at Km
PKBGAMMA = PKBGAMMA (Homo sapiens, UniProt Q9Y243); assay: Kinase panel (Millipore); format: biochemical; conditions: 1 µM, ATP at Km
TLK2 = molecular target: T13, TLK2 (Homo sapiens, UniProt Q86UE8); assay: Kinase panel (Millipore); format: biochemical; conditions: 1 µM, ATP at Km
T13 construct: purchased Millipore (KinaseProfiler) kinase panel

PRKCQ = molecular target: T14, PRKCQ (Homo sapiens, UniProt Q04759); assay: Kinase panel (Millipore); format: biochemical; conditions: 1 µM, ATP at Km
T14 construct: purchased Millipore (KinaseProfiler) kinase panel

PKCZETA = molecular target: T15, PKCZETA (Homo sapiens, UniProt Q05513); assay: Kinase panel (Millipore); format: biochemical; conditions: 1 µM, ATP at Km
T15 construct: purchased Millipore (KinaseProfiler) kinase panel

ULK3 = molecular target: T16, ULK3 (Homo sapiens, UniProt Q6PHR2); assay: Kinase panel (Millipore); format: biochemical; conditions: 1 µM, ATP at Km
T16 construct: purchased Millipore (KinaseProfiler) kinase panel

CK1GAMMA3 = CK1GAMMA3 (Homo sapiens, UniProt Q9Y6M4); assay: Kinase panel (Millipore); format: biochemical; conditions: 1 µM, ATP at Km
RIPK2 = RIPK2 (Homo sapiens, UniProt O43353); assay: Kinase panel (Millipore); format: biochemical; conditions: 1 µM, ATP at Km
TEC ACTIVATED = molecular target: T17, TEC ACTIVATED (Homo sapiens, UniProt P42680); assay: Kinase panel (Millipore); format: biochemical; conditions: 1 µM, ATP at Km
T17 construct: purchased Millipore (KinaseProfiler) kinase panel

[1] = female, NMRI, mouse, in vivo
[2] = 120 min, pH 7.4
kainate = conditions: 10 µM, agonist radioligand
GABA transporter = conditions: 10 µM, antagonist radioligand
CK2 = CK2 (Homo sapiens, UniProt P68400); conditions: 1 µM, ATP at Km
EGFR(L858R) = EGFR(L858R) (Homo sapiens, UniProt P00533, L858R); conditions: 1 µM, ATP at Km
SAPK2A(T106M) = SAPK2A(T106M) (Homo sapiens, UniProt Q16539, T106M); conditions: 1 µM, ATP at Km
FGFR1(V561M) = FGFR1(V561M) (Homo sapiens, UniProt P11362, V561M); conditions: 1 µM, ATP at Km
STK33 = STK33 (Homo sapiens, UniProt Q9BYT3); conditions: 1 µM, ATP at Km
cMET (M1268T) = cMET (M1268T) (Homo sapiens, UniProt P08581, M1250T); conditions: 1 µM, ATP at Km
alpha 2B (h) = alpha 2B (h) (Homo sapiens, UniProt P18089); assay: biochemical; conditions: read-out: % Inhibition of Control Specific Binding
CB2 (h) = CB2 (h) (Homo sapiens, UniProt P34972); assay: biochemical; conditions: read-out: % Inhibition of Control Specific Binding
[3] = molecular target: GABAA1 (h) (alpha 1,beta 2,gamma 2) (Homo sapiens, UniProt P14867+P47870); assay: biochemical; conditions: read-out: % Inhibition of Control Specific Binding
N muscle-type (h) = N muscle-type (h) (Homo sapiens, UniProt P02708+P07510+Q07001); assay: biochemical; conditions: read-out: % Inhibition of Control Specific Binding

Sequence of PKBGAMMA (Q9Y243 whole entry): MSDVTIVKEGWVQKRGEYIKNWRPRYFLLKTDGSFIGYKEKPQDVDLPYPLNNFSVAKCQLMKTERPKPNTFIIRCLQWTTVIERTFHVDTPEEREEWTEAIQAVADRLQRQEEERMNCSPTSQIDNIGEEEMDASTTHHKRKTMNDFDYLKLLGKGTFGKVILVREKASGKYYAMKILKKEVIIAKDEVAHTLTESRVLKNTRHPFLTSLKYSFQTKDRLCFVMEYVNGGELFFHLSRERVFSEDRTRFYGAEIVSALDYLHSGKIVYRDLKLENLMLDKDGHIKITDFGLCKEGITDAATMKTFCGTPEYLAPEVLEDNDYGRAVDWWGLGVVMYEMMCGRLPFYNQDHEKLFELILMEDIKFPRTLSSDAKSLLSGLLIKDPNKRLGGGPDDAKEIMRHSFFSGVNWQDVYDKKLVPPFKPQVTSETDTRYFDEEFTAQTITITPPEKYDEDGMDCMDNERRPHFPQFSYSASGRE
Sequence of STK33 (Q9BYT3 whole entry): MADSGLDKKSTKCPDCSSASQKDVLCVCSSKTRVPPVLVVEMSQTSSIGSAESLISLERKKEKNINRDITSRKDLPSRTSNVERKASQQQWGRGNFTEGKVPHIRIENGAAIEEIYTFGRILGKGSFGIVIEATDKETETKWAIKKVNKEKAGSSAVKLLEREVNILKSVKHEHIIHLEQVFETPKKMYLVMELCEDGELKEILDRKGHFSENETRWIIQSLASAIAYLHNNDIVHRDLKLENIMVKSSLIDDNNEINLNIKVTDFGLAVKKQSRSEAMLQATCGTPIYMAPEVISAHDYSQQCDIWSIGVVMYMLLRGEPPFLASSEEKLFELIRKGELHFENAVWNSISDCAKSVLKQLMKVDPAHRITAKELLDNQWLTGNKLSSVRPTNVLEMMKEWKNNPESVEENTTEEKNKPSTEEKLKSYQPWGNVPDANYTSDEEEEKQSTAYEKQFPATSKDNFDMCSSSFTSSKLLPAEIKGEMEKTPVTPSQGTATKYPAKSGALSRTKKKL
T10 sequence (P52333 whole entry): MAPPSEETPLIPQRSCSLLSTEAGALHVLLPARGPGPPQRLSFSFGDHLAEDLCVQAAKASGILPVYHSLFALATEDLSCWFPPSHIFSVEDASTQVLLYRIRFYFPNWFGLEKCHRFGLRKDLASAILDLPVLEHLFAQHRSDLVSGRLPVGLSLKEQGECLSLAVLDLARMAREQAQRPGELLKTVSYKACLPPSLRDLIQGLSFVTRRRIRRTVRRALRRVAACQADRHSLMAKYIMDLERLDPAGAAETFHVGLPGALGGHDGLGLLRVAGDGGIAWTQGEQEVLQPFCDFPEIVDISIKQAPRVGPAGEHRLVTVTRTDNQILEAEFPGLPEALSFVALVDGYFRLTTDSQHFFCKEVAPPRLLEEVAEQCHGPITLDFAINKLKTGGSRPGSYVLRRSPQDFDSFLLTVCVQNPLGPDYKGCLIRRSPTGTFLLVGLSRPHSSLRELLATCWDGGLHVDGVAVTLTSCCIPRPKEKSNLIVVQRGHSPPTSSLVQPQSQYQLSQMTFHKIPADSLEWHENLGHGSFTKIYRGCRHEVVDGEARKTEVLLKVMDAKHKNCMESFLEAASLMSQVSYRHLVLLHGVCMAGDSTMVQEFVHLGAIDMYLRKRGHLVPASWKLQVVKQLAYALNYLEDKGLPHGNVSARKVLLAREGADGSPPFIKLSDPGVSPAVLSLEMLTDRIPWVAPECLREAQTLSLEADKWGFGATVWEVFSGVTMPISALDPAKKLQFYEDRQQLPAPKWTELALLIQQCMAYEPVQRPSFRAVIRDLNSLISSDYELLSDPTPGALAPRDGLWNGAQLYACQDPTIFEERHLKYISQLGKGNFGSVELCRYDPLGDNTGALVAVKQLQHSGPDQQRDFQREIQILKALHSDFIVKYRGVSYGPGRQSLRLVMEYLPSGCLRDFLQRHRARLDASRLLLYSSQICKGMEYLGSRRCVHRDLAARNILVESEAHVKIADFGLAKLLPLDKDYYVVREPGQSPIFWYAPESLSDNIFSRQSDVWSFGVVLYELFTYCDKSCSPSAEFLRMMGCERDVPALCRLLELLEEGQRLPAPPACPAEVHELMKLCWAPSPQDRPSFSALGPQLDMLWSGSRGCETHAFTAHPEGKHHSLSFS
Sequence of SAPK2A(T106M) (Q16539 whole entry T106M): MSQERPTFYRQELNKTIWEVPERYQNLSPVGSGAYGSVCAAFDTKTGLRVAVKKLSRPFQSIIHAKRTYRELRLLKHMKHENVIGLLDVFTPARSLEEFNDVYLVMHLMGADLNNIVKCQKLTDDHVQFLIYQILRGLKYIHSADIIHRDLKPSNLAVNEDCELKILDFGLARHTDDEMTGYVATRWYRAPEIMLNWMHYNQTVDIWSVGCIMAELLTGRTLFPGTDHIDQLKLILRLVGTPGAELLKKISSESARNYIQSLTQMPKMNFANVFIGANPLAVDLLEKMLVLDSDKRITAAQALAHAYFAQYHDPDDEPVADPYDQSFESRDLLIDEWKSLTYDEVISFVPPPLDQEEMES
T15 sequence (Q05513 whole entry): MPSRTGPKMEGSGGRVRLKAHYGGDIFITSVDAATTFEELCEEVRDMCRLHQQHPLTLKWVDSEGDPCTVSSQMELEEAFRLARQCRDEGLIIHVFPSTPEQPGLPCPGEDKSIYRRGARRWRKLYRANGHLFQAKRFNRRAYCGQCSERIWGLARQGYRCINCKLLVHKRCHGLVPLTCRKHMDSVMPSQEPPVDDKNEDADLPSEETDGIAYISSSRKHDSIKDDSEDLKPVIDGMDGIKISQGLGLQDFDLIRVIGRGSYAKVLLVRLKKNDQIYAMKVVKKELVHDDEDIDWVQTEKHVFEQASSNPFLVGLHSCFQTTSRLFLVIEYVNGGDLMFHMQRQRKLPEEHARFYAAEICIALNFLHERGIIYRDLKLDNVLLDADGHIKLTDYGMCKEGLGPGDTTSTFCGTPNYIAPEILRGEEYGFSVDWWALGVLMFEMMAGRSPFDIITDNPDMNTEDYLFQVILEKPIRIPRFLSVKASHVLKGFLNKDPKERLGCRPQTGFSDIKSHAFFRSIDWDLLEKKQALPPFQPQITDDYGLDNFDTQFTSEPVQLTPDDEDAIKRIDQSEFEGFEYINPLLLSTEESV
Sequence of FAK (Q05397 whole entry): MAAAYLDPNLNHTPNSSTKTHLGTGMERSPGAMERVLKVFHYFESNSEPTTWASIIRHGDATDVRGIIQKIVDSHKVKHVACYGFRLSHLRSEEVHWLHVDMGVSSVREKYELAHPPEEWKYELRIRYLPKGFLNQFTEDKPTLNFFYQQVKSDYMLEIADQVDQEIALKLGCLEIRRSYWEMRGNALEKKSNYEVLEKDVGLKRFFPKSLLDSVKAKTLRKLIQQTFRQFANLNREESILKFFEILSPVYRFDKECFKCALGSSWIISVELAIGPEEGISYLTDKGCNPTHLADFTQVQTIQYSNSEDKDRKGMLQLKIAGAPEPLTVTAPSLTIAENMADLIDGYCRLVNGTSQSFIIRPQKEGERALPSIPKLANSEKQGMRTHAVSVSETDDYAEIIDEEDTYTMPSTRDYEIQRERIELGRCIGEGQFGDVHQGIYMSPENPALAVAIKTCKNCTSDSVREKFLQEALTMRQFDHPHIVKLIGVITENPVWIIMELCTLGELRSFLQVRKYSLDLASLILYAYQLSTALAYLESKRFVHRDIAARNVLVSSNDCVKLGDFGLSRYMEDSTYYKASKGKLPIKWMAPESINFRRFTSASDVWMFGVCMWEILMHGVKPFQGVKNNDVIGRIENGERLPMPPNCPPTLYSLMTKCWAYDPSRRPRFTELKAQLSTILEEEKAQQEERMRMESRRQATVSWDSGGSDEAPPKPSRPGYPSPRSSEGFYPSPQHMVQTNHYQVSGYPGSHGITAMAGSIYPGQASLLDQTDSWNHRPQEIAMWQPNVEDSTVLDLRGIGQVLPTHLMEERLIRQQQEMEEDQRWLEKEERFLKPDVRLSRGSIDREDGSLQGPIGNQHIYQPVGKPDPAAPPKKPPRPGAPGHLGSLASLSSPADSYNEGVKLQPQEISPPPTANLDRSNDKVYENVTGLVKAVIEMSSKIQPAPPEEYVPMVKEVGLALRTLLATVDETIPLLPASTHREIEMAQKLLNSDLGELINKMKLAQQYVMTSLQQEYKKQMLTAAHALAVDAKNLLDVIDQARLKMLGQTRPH
T1 sequence (P34998 24-415): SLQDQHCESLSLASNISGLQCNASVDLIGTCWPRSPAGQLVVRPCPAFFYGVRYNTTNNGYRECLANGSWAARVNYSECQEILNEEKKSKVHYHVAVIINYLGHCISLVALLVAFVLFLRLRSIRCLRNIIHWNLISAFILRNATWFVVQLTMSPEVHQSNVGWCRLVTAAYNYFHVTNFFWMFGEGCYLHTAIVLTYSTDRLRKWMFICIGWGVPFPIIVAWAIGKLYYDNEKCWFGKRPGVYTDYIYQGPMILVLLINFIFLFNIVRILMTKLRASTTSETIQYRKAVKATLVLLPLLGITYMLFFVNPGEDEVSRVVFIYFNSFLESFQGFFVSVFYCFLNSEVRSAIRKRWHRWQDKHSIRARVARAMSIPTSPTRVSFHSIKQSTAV
T12 sequence (Q86Y07 whole entry): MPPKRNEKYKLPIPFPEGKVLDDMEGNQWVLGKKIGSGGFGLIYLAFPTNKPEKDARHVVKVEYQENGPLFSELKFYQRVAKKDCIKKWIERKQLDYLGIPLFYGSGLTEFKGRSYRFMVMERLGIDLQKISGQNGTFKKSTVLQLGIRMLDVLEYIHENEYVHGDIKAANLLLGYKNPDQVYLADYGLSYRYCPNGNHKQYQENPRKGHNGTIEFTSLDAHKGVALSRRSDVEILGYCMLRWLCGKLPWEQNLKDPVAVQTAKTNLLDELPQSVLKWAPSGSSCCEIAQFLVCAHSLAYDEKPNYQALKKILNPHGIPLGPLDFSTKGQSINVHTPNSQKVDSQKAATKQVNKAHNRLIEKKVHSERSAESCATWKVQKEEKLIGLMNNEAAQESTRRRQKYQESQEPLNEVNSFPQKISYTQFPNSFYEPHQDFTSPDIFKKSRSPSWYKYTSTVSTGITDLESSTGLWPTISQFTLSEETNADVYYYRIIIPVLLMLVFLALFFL

## Cn1ncc2cc(-c3cnc(N)c(Cl)c3N3CCC4(CCNC4=O)CC3)ccc21 [Compound 109, 8-(2-Amino-3-chloro-5-(1-methyl-1H-indazol-5-yl)pyridin-4-yl)-2,8-diazaspiro[4.5]decan-1-one]
CRF1 (h)
  inhibition at 10 µM: -7%
CCR2 (h)
  inhibition at 10 µM: -9%
sst4 (h)
  inhibition at 10 µM: 9%
KDR
  % effect: -26%
EPHA3
  % effect: 5%
BLK
  % effect: 11%
BRSK2
  % effect: 0%
FGFR3
  % effect: -9%
MLCK
  % effect: 3%
MSK1
  % effect: -3%
CK1(Y)
  % effect: -1%
HIPK3
  % effect: 18%
MST3
  % effect: -11%
DAPK1
  % effect: -8%
DMPK
  % effect: 4%
IRAK4
  % effect: 6%
EEF-2K
  % effect: -6%
JAK3
  % effect: 4%
FAK
  % effect: 6%
PDGFRBETA
  % effect: -9%
VRK2
  % effect: 3%
PKA
  % effect: 25%
PKBGAMMA
  % effect: 7%
TLK2
  % effect: -5%
PRKCQ
  % effect: -13%
PKCZETA
  % effect: 1%
ULK3
  % effect: -21%
CK1GAMMA3
  % effect: -7%
RIPK2
  % effect: 1%
TEC ACTIVATED
  % effect: -1%
[1]
  LBF: 10%
[2]
  Solubility Kinetic: 137 µM (≈ 56.3 µg/mL)
kainate
  % Inhibition of Control Specific Binding: 9%
GABA transporter
  % Inhibition of Control Specific Binding: 3%
CK2
  % effect: 3%
EGFR(L858R)
  % effect: -4%
SAPK2A(T106M)
  % effect: 2%
FGFR1(V561M)
  % effect: -25%
STK33
  % effect: 0%
cMET (M1268T)
  % effect: 1%
Alpha 2B (h)
  inhibition at 10 µM: 10%
CB2 (h)
  inhibition at 10 µM: 29%
[3]
  inhibition at 10 µM: -12%
N muscle-type (h)
  inhibition at 10 µM: 11%
